Tested on: MV-4-11 cells
Experiment: Gene expression microarray analysis (Affymetrix PrimeView) and GSEA
Assay type: cell-based, human
Design: RFU PODN (11730768_x_at) / Fold change /veh PODN (11730768_x_at) / RFU LINC00158 (11744669_a_at) / Fold change /veh LINC00158 (11744669_a_at) / RFU DUSP10 (11751237_a_at) / Fold change /veh DUSP10 (11751237_a_at) / RFU ID3 (11757404_x_at) / Fold change /veh ID3 (11757404_x_at) / RFU PLEKHG5 (11737974_s_at) / Fold change /veh PLEKHG5 (11737974_s_at) / RFU LRRC4B (11730491_at) / Fold change /veh LRRC4B (11730491_at) / RFU GIMAP4 (11747438_a_at) / Fold change /veh GIMAP4 (11747438_a_at) / RFU KRT8 (11758183_x_at) / Fold change /veh KRT8 (11758183_x_at) / RFU CNN1 (11734310_a_at) / Fold change /veh CNN1 (11734310_a_at) / RFU VPS37D (11726825_at) / Fold change /veh VPS37D (11726825_at) / RFU C10orf10 (11716522_x_at) / Fold change /veh C10orf10 (11716522_x_at) / RFU KIR2DL2 /// KIR2DL4 /// KIR2DL5A /// KIR2DL5B /// KIR2DS1 /// KIR2DS2 /// KIR2DS3 /// KIR2DS4 /// KIR3DL3 /// KIR3DL3 /// KIR3DS1 (11738374_at) / Fold change /veh KIR2DL2 /// KIR2DL4 /// KIR2DL5A /// KIR2DL5B /// KIR2DS1 /// KIR2DS2 /// KIR2DS3 /// KIR2DS4 /// KIR3DL3 /// KIR3DL3 /// KIR3DS1 (11738374_at) / RFU C1QL1 (11718748_at) / Fold change /veh C1QL1 (11718748_at) / RFU TMPRSS4 (11747572_a_at) / Fold change /veh TMPRSS4 (11747572_a_at) / RFU HAMP (11756126_x_at) / Fold change /veh HAMP (11756126_x_at) / RFU RNFT2 (11725882_a_at) / Fold change /veh RNFT2 (11725882_a_at) / RFU NR4A2 (11747474_a_at) / Fold change /veh NR4A2 (11747474_a_at) / RFU ABCC12 (11746883_a_at) / Fold change /veh ABCC12 (11746883_a_at) / RFU TMEM136 (11760407_x_at) / Fold change /veh TMEM136 (11760407_x_at) / RFU CLDN22 /// WWC2 (11732394_at) / Fold change /veh CLDN22 /// WWC2 (11732394_at) / RFU HLA-DPB1 (11760878_x_at) / Fold change /veh HLA-DPB1 (11760878_x_at) / RFU SPINT1 (11716480_a_at) / Fold change /veh SPINT1 (11716480_a_at) / RFU GAP43 (11754022_s_at) / Fold change /veh GAP43 (11754022_s_at) / RFU A4GNT (11735810_at) / Fold change /veh A4GNT (11735810_at) / RFU PRB3 (11715151_x_at) / Fold change /veh PRB3 (11715151_x_at) / RFU TUBB4B (11761932_at) / Fold change /veh TUBB4B (11761932_at) / RFU CAPN14 (11732068_a_at) / Fold change /veh CAPN14 (11732068_a_at) / RFU TMCC2 (11721928_a_at) / Fold change /veh TMCC2 (11721928_a_at) / RFU IRGQ (11745062_a_at) / Fold change /veh IRGQ (11745062_a_at) / RFU FAM174B (11720279_a_at) / Fold change /veh FAM174B (11720279_a_at) / RFU TMPRSS4 (11748680_a_at) / Fold change /veh TMPRSS4 (11748680_a_at) / RFU FAM212B (11763350_a_at) / Fold change /veh FAM212B (11763350_a_at) / RFU PLEKHG5 (11743358_a_at) / Fold change /veh PLEKHG5 (11743358_a_at) / RFU ZSCAN30 (11745921_a_at) / Fold change /veh ZSCAN30 (11745921_a_at) / RFU CMKLR1 (11741424_a_at) / Fold change /veh CMKLR1 (11741424_a_at) / RFU LOC101060620 /// MAPK8IP1 (11723275_at) / Fold change /veh LOC101060620 /// MAPK8IP1 (11723275_at) / RFU SPTSSB (11747773_x_at) / Fold change /veh SPTSSB (11747773_x_at) / RFU PRSS12 (11739890_at) / Fold change /veh PRSS12 (11739890_at) / RFU BIN1 (11741810_x_at) / Fold change /veh BIN1 (11741810_x_at) / RFU WNT11 (11732464_a_at) / Fold change /veh WNT11 (11732464_a_at) / RFU C10orf10 (11716521_a_at) / Fold change /veh C10orf10 (11716521_a_at) / RFU C5orf56 (11738089_at) / Fold change /veh C5orf56 (11738089_at) / RFU CYB561 (11721691_x_at) / Fold change /veh CYB561 (11721691_x_at) / RFU ANKRD19P (11752326_a_at) / Fold change /veh ANKRD19P (11752326_a_at) / RFU OR2T12 /// OR2T33 /// OR2T8 (11738714_s_at) / Fold change /veh OR2T12 /// OR2T33 /// OR2T8 (11738714_s_at) / RFU VCAN (11748164_a_at) / Fold change /veh VCAN (11748164_a_at) / RFU JSRP1 (11732532_at) / Fold change /veh JSRP1 (11732532_at) / RFU KRTAP10-11 (11738290_x_at) / Fold change /veh KRTAP10-11 (11738290_x_at) / RFU MYO3A (11730013_a_at) / Fold change /veh MYO3A (11730013_a_at) / RFU EBF3 (11725865_a_at) / Fold change /veh EBF3 (11725865_a_at) / RFU CAMK2N1 (11719241_x_at) / Fold change /veh CAMK2N1 (11719241_x_at) / RFU C5orf56 (11738088_a_at) / Fold change /veh C5orf56 (11738088_a_at) / RFU OLFML3 (11715873_a_at) / Fold change /veh OLFML3 (11715873_a_at) / RFU LOC100653217 /// NTM (11731650_a_at) / Fold change /veh LOC100653217 /// NTM (11731650_a_at) / RFU MAPK11 (11762145_a_at) / Fold change /veh MAPK11 (11762145_a_at) / RFU FIZ1 (11724087_x_at) / Fold change /veh FIZ1 (11724087_x_at) / RFU OASL (11726364_x_at) / Fold change /veh OASL (11726364_x_at) / RFU SOX15 (11748057_x_at) / Fold change /veh SOX15 (11748057_x_at) / RFU CD79A (11719716_a_at) / Fold change /veh CD79A (11719716_a_at) / RFU HIST1H1D (11736915_at) / Fold change /veh HIST1H1D (11736915_at) / RFU CASKIN2 (11723855_a_at) / Fold change /veh CASKIN2 (11723855_a_at) / RFU LOC730098 (11760151_x_at) / Fold change /veh LOC730098 (11760151_x_at) / RFU OR4N2 (11742367_at) / Fold change /veh OR4N2 (11742367_at) / RFU PRRT2 (11749266_a_at) / Fold change /veh PRRT2 (11749266_a_at) / RFU SNX32 (11753110_a_at) / Fold change /veh SNX32 (11753110_a_at) / RFU CDHR5 (11726645_a_at) / Fold change /veh CDHR5 (11726645_a_at) / RFU RCAN1 (11760418_a_at) / Fold change /veh RCAN1 (11760418_a_at) / RFU FAM167A (11723789_a_at) / Fold change /veh FAM167A (11723789_a_at) / RFU FAM26E (11764081_at) / Fold change /veh FAM26E (11764081_at) / RFU ISYNA1 (11749810_s_at) / Fold change /veh ISYNA1 (11749810_s_at) / RFU ACY1 (11761880_at) / Fold change /veh ACY1 (11761880_at) / RFU 11764098_at / Fold change /veh 11764098_at / RFU SAMD14 (11745864_x_at) / Fold change /veh SAMD14 (11745864_x_at) / RFU NPB (11741838_a_at) / Fold change /veh NPB (11741838_a_at) / RFU TMPRSS6 (11731388_a_at) / Fold change /veh TMPRSS6 (11731388_a_at) / RFU KRTAP10-2 (11738614_at) / Fold change /veh KRTAP10-2 (11738614_at) / RFU ARHGAP8 /// PRR5-ARHGAP8 (11727945_x_at) / Fold change /veh ARHGAP8 /// PRR5-ARHGAP8 (11727945_x_at) / RFU KRTAP5-7 /// NADSYN1 (11734609_at) / Fold change /veh KRTAP5-7 /// NADSYN1 (11734609_at) / RFU RASL12 (11751679_a_at) / Fold change /veh RASL12 (11751679_a_at) / RFU CDKN2B (11736163_a_at) / Fold change /veh CDKN2B (11736163_a_at) / RFU PRF1 (11729649_at) / Fold change /veh PRF1 (11729649_at) / RFU, ZNF638 /// ZNF638-IT1 / Fold change vs veh, ZNF638 /// ZNF638-IT1 / RFU, PANK3 / Fold change vs veh, PANK3 / RFU, SH3YL1 / Fold change vs veh, SH3YL1 / RFU, ZEB2 / Fold change vs veh, ZEB2 / RFU, NRIP1 / Fold change vs veh, NRIP1 / RFU, PTTG1IP / Fold change vs veh, PTTG1IP / RFU, CAPN2 / Fold change vs veh, CAPN2 / RFU, MED14 / Fold change vs veh, MED14 / RFU, SNORA58 / Fold change vs veh, SNORA58 / RFU, C1orf63 / Fold change vs veh, C1orf63 / RFU, LRRFIP1 / Fold change vs veh, LRRFIP1 / RFU, NDUFAF7 / Fold change vs veh, NDUFAF7 / RFU, SLC12A2 / Fold change vs veh, SLC12A2 / RFU, IBTK / Fold change vs veh, IBTK / RFU, ESF1 / Fold change vs veh, ESF1 / Fold change vs veh, TMEM50B / RFU, TAOK1 / Fold change vs veh, TAOK1 / RFU, ACBD3 / Fold change vs veh, ACBD3 / RFU, TMA16 / Fold change vs veh, TMA16 / RFU, RWDD3 / Fold change vs veh, RWDD3 / RFU, BCAT1 / Fold change vs veh, BCAT1 / RFU, EDEM3 / Fold change vs veh, EDEM3 / RFU, TMEM33 / Fold change vs veh, TMEM33 / RFU, WDR75 / Fold change vs veh, WDR75 / RFU, AHCTF1 / Fold change vs veh, AHCTF1 / RFU, TFRC / Fold change vs veh, TFRC / RFU, ZDHHC17 / Fold change vs veh, ZDHHC17 / RFU, NOM1 / Fold change vs veh, NOM1 / RFU, ARL8B / Fold change vs veh, ARL8B / RFU, ZBTB11 / Fold change vs veh, ZBTB11 / RFU, TAMM41 / Fold change vs veh, TAMM41 / RFU, KIAA1704 /// LOC100996395 / Fold change vs veh, KIAA1704 /// LOC100996395 / RFU, ING1 / Fold change vs veh, ING1 / RFU, TRMT61B / Fold change vs veh, TRMT61B / RFU, FUBP3 / Fold change vs veh, FUBP3 / RFU, TP53 / Fold change vs veh, TP53 / RFU, TNKS2 / Fold change vs veh, TNKS2 / RFU, ZFP14 / Fold change vs veh, ZFP14 / RFU, ACTR2 / Fold change vs veh, ACTR2 / RFU, PPP3R1 / Fold change vs veh, PPP3R1 / RFU, PIK3R1 / Fold change vs veh, PIK3R1 / RFU, HNRNPA1 / Fold change vs veh, HNRNPA1 / RFU, RNF170 / Fold change vs veh, RNF170 / RFU, ZNF28 / Fold change vs veh, ZNF28 / RFU, RNGTT / Fold change vs veh, RNGTT / RFU, OGT / Fold change vs veh, OGT / RFU, BRD1 / Fold change vs veh, BRD1 / RFU, MARS / Fold change vs veh, MARS / RFU, ZNF655 / Fold change vs veh, ZNF655 / RFU, FAHD1 / Fold change vs veh, FAHD1 / RFU, BDP1 / Fold change vs veh, BDP1 / RFU, LRRCC1 / Fold change vs veh, LRRCC1 / RFU, ARID1A / Fold change vs veh, ARID1A / RFU, ZNF146 / Fold change vs veh, ZNF146 / RFU, ZNF330 / Fold change vs veh, ZNF330 / RFU, GPN3 / Fold change vs veh, GPN3 / RFU, C9orf123 / Fold change vs veh, C9orf123 / RFU, N4BP2L2 / Fold change vs veh, N4BP2L2 / RFU, ARFIP1 / Fold change vs veh, ARFIP1 / RFU, FAM179B / Fold change vs veh, FAM179B / RFU, BCL10 / Fold change vs veh, BCL10 / RFU, UHRF1BP1L / Fold change vs veh, UHRF1BP1L / RFU, BET1 / Fold change vs veh, BET1 / RFU, CNOT2 / Fold change vs veh, CNOT2 / RFU, ZNF268 / Fold change vs veh, ZNF268 / Fold change vs veh, ZNF507 / RFU, DGCR2 / Fold change vs veh, DGCR2 / RFU, WDSUB1 / Fold change vs veh, WDSUB1 / Fold change vs veh, HSP90B1 /// MIR3652 / RFU, ADSS / Fold change vs veh, ADSS / RFU, GK / Fold change vs veh, GK / RFU, ZNF148 / Fold change vs veh, ZNF148 / RFU, TAF9 / Fold change vs veh, TAF9 / RFU, SLC1A5 / Fold change vs veh, SLC1A5 / RFU, SLMO2 / Fold change vs veh, SLMO2 / RFU, ABCC4 / Fold change vs veh, ABCC4 / RFU, LOC101060439 /// RAP1B / Fold change vs veh, LOC101060439 /// RAP1B / RFU, RFX7 / Fold change vs veh, RFX7 / RFU, GTPBP10 / Fold change vs veh, GTPBP10 / RFU, CNEP1R1 / Fold change vs veh, CNEP1R1 / RFU, BIVM-ERCC5 /// ERCC5 / Fold change vs veh, BIVM-ERCC5 /// ERCC5 / RFU, ILF3 / Fold change vs veh, ILF3 / RFU 11762660_at / Fold change /veh 11762660_at / RFU VCAN (11757783_s_at) / Fold change /veh VCAN (11757783_s_at) / RFU DDX43 (11728927_at) / Fold change /veh DDX43 (11728927_at) / RFU KRT8 (11758188_x_at) / Fold change /veh KRT8 (11758188_x_at) / RFU NKD1 (11759106_at) / Fold change /veh NKD1 (11759106_at) / RFU SRD5A1 (11742802_a_at) / Fold change /veh SRD5A1 (11742802_a_at) / RFU TPSAB1 /// TPSB2 (11721975_s_at) / Fold change /veh TPSAB1 /// TPSB2 (11721975_s_at) / RFU GSTM3 (11746129_a_at) / Fold change /veh GSTM3 (11746129_a_at) / RFU IL23R (11737362_x_at) / Fold change /veh IL23R (11737362_x_at) / RFU TMEM51 (11727254_a_at) / Fold change /veh TMEM51 (11727254_a_at) / RFU PIWIL2 (11732686_x_at) / Fold change /veh PIWIL2 (11732686_x_at) / RFU ORM1 (11744905_x_at) / Fold change /veh ORM1 (11744905_x_at) / RFU CCDC152 (11743942_at) / Fold change /veh CCDC152 (11743942_at) / RFU ECM1 (11717891_a_at) / Fold change /veh ECM1 (11717891_a_at) / RFU IL23R (11748794_a_at) / Fold change /veh IL23R (11748794_a_at) / RFU TNFAIP8L3 (11732012_x_at) / Fold change /veh TNFAIP8L3 (11732012_x_at) / RFU MBOAT4 (11741988_at) / Fold change /veh MBOAT4 (11741988_at) / RFU 11764193_at / Fold change /veh 11764193_at / RFU TMEM53 (11763286_at) / Fold change /veh TMEM53 (11763286_at) / RFU MAGEB2 (11727129_at) / Fold change /veh MAGEB2 (11727129_at) / RFU TMEM200A (11744735_a_at) / Fold change /veh TMEM200A (11744735_a_at) / RFU CCDC152 (11751479_a_at) / Fold change /veh CCDC152 (11751479_a_at) / RFU FAM211A (11726209_a_at) / Fold change /veh FAM211A (11726209_a_at) / RFU RGS16 (11746705_a_at) / Fold change /veh RGS16 (11746705_a_at) / RFU VCAN (11755009_s_at) / Fold change /veh VCAN (11755009_s_at) / RFU RHOB (11743442_s_at) / Fold change /veh RHOB (11743442_s_at) / RFU RGS16 (11720943_a_at) / Fold change /veh RGS16 (11720943_a_at) / RFU RGS16 (11720944_at) / Fold change /veh RGS16 (11720944_at) / RFU, VPS4B / Fold change vs veh, VPS4B / RFU, CREB1 / Fold change vs veh, CREB1 / RFU, DNAJC13 / Fold change vs veh, DNAJC13 / RFU, GNAQ / Fold change vs veh, GNAQ / RFU, CDK5R1 / Fold change vs veh, CDK5R1 / RFU, ZRANB3 / Fold change vs veh, ZRANB3 / RFU, CUL4A / Fold change vs veh, CUL4A / RFU, CCNY / Fold change vs veh, CCNY / RFU, UFL1 / Fold change vs veh, UFL1 / RFU, COG3 / Fold change vs veh, COG3 / RFU, DIAPH2 / Fold change vs veh, DIAPH2 / RFU, SKA2 / Fold change vs veh, SKA2 / RFU, AFF3 / Fold change vs veh, AFF3 / RFU, LMF1 / Fold change vs veh, LMF1 / RFU, IPO11 / Fold change vs veh, IPO11 / RFU, DFFB / Fold change vs veh, DFFB / RFU, FOXP1 / Fold change vs veh, FOXP1 / RFU, CARD8 / Fold change vs veh, CARD8 / RFU, STRN3 / Fold change vs veh, STRN3 / RFU, ADK / Fold change vs veh, ADK / RFU, RASSF2 / Fold change vs veh, RASSF2 / RFU, WIPF1 / Fold change vs veh, WIPF1 / RFU, LARP1B / Fold change vs veh, LARP1B / RFU, RASA1 / Fold change vs veh, RASA1 / RFU, RB1 / Fold change vs veh, RB1 / RFU, PPFIA1 / Fold change vs veh, PPFIA1 / RFU, MAT2A / Fold change vs veh, MAT2A / RFU, CCT5 / Fold change vs veh, CCT5 / RFU, WDR92 / Fold change vs veh, WDR92 / RFU, CUX1 / Fold change vs veh, CUX1 / RFU, TTC7A / Fold change vs veh, TTC7A / RFU, TMEM135 / Fold change vs veh, TMEM135 / RFU, DEPTOR / Fold change vs veh, DEPTOR / RFU, CPM / Fold change vs veh, CPM / RFU, DNAJB6 / Fold change vs veh, DNAJB6 / RFU, CACNA2D3 / Fold change vs veh, CACNA2D3 / RFU, DTX4 / Fold change vs veh, DTX4 / RFU, TFCP2 / Fold change vs veh, TFCP2 / RFU, GMCL1 /// GMCL1P1 / Fold change vs veh, GMCL1 /// GMCL1P1 / RFU, AEBP2 / Fold change vs veh, AEBP2 / RFU, SNHG1 /// SNORD22 /// SNORD25 /// SNORD26 /// SNORD27 /// SNORD28 /// SNORD29 /// SNORD31 / Fold change vs veh, SNHG1 /// SNORD22 /// SNORD25 /// SNORD26 /// SNORD27 /// SNORD28 /// SNORD29 /// SNORD31 / Fold change (Aza/veh), C12orf56 (ProbeSet 11735607_a_at) / Fold change (ACY-1035/veh), C12orf56 (ProbeSet 11735607_a_at) / Fold change (Aza/veh), FGFR1OP (ProbeSet 11751329_s_at) / Fold change (ACY-1035/veh), FGFR1OP (ProbeSet 11751329_s_at) / Fold change (Aza/veh), VPS36 (ProbeSet 11739960_a_at) / Fold change (ACY-1035/veh), VPS36 (ProbeSet 11739960_a_at) / RFU SYPL1 (11715823_x_at) / Fold change /veh SYPL1 (11715823_x_at) / RFU IGFBP7 (11715501_s_at) / Fold change /veh IGFBP7 (11715501_s_at) / RFU REEP3 (11722064_at) / Fold change /veh REEP3 (11722064_at) / RFU IGLL1 (11728026_x_at) / Fold change /veh IGLL1 (11728026_x_at): dose or concentration left out as unconfirmed
Conditions: ProbeSet 11724763_s_at; LIST D

Nc1ncn([C@@H]2O[C@H](CO)[C@@H](O)[C@H]2O)c(=O)n1 [azacitidine]
Fold change vs veh, DEPTOR: 0.65

From publication PMC5218480 (PLoS ONE, 2017)
